From ChEMBL document CHEMBL1649366, “Self-organizing molecular field analysis on human β-secretase nonpeptide inhibitors: 5, 5-disubstituted aminohydantoins” (Eur J Med Chem, 2011) come the findings set out here.

Beta-secretase 1, sequence (P56817 whole entry): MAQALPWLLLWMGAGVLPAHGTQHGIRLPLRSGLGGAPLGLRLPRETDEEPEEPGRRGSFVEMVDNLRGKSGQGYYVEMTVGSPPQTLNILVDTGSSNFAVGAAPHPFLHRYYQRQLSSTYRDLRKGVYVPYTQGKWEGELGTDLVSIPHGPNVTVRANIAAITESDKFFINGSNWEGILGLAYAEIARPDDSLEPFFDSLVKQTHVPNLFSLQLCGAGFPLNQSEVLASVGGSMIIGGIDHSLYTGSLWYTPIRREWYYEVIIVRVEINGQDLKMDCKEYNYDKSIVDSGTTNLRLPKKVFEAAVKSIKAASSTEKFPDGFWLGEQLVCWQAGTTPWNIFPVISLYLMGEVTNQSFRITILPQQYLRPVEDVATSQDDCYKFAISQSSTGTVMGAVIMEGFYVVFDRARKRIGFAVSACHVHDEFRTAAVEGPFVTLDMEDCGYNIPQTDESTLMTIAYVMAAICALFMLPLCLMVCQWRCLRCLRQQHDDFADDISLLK

This assay concerns the target Beta-secretase 1 (Homo sapiens, UniProt P56817). Description: Inhibition of human BACE1.
What is called IC50 is the midpoint of a concentration-inhibition curve. Molecule `NC1=NC(c2ccccc2)(c2ccccc2)C(=O)N1` had a half-maximal inhibitory concentration (IC50) of 20 µM. The molecule `CCc1cc(C2(c3cccc(-c4cncnc4)c3)N=C(N)N(C)C2=O)cc(CC)n1` (centres undefined) showed a 50% inhibitory concentration (IC50) of 0.03 µM. To `NC1=NC(c2ccccc2)(C2CCCCC2)C(=O)N1CCCO` (centres undefined) belongs 4.8 µM. With `CCN1C(=O)C(c2ccccc2)(c2ccccc2)N=C1N`, 8 µM corresponded to half-maximal inhibition (IC50).
